According to US10138247B2, “7-(morpholin-4-yl)pyrazole[1,5-A]pyrimidine derivatives as PI3 kinase inhibitors” (priority 2015, dated 2018):
Like-named read-outs stand apart in the source and are kept apart here.

Experiments:
Assay type in all cases: biochemical
PI3Kγ = target: T1, PI3Kγ (Homo sapiens, UniProt P48736); assay: PI3K kinases inhibition in vitro (ADP-Glo), PI3Kγ
T1 construct: purchased Merck Millipore
Description: (§1) Tested compounds were dissolved in 100% DMSO, and thus obtained solutions were serially diluted in 1× reaction buffer. Recombinant kinase was diluted in a reaction mixture comprising 5× reaction buffer, substrate (1 mM sodium diacetate 4,5-bisphosphate phosphatydylinositol (PIP2) solution in 40 mM Tris buffer), and water. To the wells in a 96-wells plate, 5 μl of compounds solutions and 15 μl of the kinase solution in the reaction mixture were added. To initiate interaction of tested chemical compounds with the enzyme, the plate was incubated for 10 minutes at suitable temperature in a plate thermostat with orbital shaking at 600 rpm. Negative control wells contained all above reagents except tested compound and kinase, and positive control wells contained all above reagents except tested compounds. Enzymatic reaction was initiated by adding 5 μl of 150 μM ATP solution, subsequently the plate was incubated for 1 hour at 25° C. or 30° C. (depending on PI3K isoform tested) in plate thermostat with orbital shaking of the plate contents at 600 rpm. Reaction conditions are presented below in Table 12.
(§2) Detection of ADP formed in the enzymatic reaction was then performed using ADP-Glo Kinase Assay (Promega). To the wells of a 96-well plate 25 μl of ADP-Glo Reagent were added, and the plate was incubated for 40 minutes at 25° C. in a plate thermostat with orbital shaking at 600 rpm. Then to the wells of 96-well plate 50 μl of Kinase Detection Reagent were added and the plate was incubated for 40 minutes at 25° C. in a plate thermostat with orbital shaking at 600 rpm. After incubation time, luminescence intensity in a well was measured by Victor Light luminometer (Perkin Elmer, Inc.).
(§3) IC50 values were determined on the basis of luminescence intensity measurements in wells containing tested compounds at different concentrations and in control wells. These values were calculated with Graph Pad 5.03 software by fitting the curve using non-linear regression. Each compound was tested at least in quadruplicates (4 wells) on two 96-well plates using at least 4 wells of each of the controls.

PI3Kβ = target: T2, PI3Kβ (Homo sapiens, UniProt P42338); assay: PI3K kinases inhibition in vitro (ADP-Glo), PI3Kβ
T2 construct: purchased Merck Millipore
Description: as §1, §2, §3

PI3Kα = target: T3, PI3Kα (Homo sapiens, UniProt P42336); assay: PI3K kinases inhibition in vitro (ADP-Glo), PI3Kα
T3 construct: purchased Carna Biosciences
Description: as §1, §2, §3

PI3Kδ = target: T4, PI3Kδ (Homo sapiens, UniProt O00329); assay: PI3K kinases inhibition in vitro (ADP-Glo), PI3Kδ
T4 construct: purchased Merck Millipore
Description: as §1, §2, §3

[1] = averaged, recombinant kinase, 30° C., 1 h, PIP2 50 μM, read-out: PI3Kγ IC50
[2] = averaged, recombinant kinase, 30° C., 1 h, PIP2 50 μM, read-out: PI3Kβ IC50
[3] = averaged, recombinant kinase, 25° C., 1 h, PIP2 30 μM, read-out: PI3Kδ IC50

T3 sequence (P42336 whole entry): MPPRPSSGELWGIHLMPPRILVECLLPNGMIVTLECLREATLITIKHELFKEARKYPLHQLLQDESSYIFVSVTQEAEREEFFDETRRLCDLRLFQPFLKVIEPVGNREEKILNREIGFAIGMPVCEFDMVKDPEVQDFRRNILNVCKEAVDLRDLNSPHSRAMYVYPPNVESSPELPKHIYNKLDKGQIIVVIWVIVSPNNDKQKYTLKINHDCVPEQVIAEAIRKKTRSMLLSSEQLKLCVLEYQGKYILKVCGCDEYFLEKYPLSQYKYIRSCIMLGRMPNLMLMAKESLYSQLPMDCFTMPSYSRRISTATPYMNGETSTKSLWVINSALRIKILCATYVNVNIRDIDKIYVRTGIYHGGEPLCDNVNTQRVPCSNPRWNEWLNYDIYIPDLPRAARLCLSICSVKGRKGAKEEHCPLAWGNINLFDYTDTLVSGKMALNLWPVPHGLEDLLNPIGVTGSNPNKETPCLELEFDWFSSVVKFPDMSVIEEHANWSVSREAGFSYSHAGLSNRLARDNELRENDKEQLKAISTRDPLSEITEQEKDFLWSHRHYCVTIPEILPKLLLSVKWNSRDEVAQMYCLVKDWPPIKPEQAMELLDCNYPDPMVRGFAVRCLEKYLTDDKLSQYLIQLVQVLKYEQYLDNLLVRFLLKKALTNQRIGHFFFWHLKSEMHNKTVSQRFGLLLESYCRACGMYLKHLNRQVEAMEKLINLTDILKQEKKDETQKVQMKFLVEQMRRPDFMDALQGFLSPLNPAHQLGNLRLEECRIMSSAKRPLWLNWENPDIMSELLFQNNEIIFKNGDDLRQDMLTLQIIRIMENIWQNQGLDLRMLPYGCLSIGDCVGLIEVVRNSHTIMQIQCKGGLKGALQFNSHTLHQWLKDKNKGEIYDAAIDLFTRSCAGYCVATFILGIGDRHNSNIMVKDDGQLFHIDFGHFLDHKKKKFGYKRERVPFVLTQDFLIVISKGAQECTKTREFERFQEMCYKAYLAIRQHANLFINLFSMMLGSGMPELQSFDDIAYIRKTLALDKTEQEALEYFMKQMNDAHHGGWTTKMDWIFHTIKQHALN
T3 sequence (P27986 whole entry partner): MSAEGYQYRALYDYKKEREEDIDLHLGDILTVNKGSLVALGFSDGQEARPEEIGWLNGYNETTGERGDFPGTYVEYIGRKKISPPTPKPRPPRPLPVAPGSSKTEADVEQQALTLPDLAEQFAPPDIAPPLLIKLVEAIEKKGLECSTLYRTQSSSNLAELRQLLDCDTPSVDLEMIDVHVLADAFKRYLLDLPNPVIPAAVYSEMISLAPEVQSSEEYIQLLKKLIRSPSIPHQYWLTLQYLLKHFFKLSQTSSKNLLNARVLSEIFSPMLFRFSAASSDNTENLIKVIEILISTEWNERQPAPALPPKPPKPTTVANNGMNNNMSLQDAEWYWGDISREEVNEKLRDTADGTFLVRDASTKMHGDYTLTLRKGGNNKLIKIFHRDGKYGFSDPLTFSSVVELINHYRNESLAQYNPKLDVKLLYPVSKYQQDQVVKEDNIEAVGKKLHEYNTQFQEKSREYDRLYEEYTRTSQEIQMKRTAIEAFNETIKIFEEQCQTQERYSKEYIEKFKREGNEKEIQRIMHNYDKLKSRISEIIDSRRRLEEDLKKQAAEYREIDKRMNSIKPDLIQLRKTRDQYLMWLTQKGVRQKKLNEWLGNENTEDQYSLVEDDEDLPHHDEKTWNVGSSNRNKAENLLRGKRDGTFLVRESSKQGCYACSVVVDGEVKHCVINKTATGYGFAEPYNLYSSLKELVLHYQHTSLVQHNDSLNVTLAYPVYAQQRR
T1 sequence (P48736 whole entry): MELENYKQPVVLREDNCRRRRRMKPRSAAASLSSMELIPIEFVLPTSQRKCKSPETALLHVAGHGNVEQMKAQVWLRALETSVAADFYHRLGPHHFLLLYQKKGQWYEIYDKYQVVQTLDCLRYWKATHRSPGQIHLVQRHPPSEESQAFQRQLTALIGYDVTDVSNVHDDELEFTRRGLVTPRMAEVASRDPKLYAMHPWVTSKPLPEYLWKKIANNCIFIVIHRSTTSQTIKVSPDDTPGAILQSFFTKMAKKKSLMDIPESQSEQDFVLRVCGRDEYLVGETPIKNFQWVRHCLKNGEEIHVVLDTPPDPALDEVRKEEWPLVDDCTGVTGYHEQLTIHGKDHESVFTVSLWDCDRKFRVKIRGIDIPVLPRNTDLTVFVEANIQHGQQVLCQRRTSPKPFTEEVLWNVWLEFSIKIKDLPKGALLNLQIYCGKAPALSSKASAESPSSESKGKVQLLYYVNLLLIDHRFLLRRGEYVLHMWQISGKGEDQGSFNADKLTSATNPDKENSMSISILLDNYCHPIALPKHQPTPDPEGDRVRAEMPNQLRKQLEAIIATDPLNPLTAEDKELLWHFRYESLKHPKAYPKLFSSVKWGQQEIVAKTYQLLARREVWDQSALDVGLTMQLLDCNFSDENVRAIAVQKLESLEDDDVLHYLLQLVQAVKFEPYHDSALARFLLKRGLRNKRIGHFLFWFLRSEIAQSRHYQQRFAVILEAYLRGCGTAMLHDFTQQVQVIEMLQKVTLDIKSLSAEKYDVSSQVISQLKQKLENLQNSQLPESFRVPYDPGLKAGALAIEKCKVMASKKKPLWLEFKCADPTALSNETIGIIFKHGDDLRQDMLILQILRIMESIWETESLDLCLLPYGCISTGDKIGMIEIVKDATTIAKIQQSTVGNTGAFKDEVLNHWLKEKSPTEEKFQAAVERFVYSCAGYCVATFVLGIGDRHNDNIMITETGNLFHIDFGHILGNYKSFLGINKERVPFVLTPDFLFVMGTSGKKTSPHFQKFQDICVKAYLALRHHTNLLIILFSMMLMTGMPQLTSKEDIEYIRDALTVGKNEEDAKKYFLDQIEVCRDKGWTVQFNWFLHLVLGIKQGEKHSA
T4 sequence (O00329 whole entry): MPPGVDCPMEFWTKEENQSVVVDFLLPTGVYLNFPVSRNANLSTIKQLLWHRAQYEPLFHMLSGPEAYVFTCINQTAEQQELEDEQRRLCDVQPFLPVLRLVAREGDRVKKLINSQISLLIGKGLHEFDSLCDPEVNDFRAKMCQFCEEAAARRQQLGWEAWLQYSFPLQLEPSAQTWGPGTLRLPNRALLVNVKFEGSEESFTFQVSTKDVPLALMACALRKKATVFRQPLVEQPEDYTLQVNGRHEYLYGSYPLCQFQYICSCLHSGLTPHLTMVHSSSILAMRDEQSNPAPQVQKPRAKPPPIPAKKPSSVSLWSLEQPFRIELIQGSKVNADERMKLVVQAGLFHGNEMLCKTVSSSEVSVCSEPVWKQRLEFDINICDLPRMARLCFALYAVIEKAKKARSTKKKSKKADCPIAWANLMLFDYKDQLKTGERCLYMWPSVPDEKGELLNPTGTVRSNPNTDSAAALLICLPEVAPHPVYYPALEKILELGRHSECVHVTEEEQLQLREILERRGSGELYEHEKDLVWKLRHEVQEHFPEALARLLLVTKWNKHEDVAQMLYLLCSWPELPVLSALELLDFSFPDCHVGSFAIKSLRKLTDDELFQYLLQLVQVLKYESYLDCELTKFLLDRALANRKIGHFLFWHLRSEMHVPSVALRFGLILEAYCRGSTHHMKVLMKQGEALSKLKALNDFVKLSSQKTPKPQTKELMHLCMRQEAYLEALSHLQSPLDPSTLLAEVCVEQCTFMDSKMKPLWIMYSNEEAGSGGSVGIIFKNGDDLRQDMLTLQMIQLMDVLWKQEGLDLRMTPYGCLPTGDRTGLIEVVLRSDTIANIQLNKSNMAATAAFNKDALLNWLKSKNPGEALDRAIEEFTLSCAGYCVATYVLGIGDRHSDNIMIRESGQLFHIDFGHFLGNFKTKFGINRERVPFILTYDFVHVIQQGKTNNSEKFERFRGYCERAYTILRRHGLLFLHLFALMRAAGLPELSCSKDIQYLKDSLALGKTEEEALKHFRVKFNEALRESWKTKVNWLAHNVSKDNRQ
T4 sequence (P27986 whole entry, further chain): as the sequence (P27986 whole entry partner) above
T2 sequence (P42338 whole entry): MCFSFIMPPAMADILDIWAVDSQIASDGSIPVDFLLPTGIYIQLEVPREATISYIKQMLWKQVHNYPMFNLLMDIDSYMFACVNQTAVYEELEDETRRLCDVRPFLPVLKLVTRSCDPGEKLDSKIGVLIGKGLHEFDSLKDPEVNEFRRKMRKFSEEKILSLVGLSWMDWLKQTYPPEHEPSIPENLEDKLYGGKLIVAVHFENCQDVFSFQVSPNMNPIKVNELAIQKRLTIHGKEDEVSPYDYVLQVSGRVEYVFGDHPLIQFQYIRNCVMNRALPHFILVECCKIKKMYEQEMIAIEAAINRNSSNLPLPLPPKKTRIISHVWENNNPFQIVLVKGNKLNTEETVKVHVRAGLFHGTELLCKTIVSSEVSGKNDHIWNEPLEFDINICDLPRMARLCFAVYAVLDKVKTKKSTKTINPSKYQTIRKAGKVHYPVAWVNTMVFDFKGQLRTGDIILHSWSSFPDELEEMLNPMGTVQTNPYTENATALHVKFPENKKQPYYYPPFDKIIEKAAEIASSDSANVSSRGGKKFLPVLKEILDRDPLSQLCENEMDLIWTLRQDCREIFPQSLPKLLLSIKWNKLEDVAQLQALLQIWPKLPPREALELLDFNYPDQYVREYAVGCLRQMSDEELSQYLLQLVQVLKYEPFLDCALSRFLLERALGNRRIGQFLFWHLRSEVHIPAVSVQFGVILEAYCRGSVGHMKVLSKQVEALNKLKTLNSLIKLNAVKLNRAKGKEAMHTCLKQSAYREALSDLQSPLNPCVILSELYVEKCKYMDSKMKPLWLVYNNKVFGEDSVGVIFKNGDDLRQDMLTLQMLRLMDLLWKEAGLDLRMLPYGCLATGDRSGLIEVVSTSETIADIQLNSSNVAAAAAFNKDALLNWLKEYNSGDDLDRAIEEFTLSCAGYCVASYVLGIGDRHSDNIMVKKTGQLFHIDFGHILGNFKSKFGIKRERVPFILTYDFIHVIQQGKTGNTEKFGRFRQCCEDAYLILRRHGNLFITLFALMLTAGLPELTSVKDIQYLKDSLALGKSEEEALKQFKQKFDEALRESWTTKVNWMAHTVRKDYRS
T2 sequence (P27986 whole entry, further chain): as the sequence (P27986 whole entry partner) above

Structure (SMILES)	IC50 (PI3Kγ; [1]) [nM]	IC50 (PI3Kβ; [2]) [nM]	IC50 (PI3Kα) [nM]	IC50 (PI3Kδ; [3]) [nM]	IC50 (PI3Kγ) [nM]	IC50 (PI3Kβ) [nM]	IC50 (PI3Kδ) [nM]
O=C(C1CC1)N1CCN(Cc2cc3nc(-c4cccc5[nH]ccc45)cc(N4CCOCC4)n3n2)CC1 [Example 1, 2-((4-(cyclopropanecarbonyl)piperazin-1-yl)methyl)-5-(1H-indol-4-yl)-7-(morpholin-4-yl)pyrazolo[1,5-a]pyrimidine]	100 to 1000	> 1000	> 1000	< 100	–	–	–
CN(C)C1CCN(Cc2cc3nc(-c4cccc5[nH]ccc45)cc(N4CCOCC4)n3n2)CC1 [Example 5, 2-((4-(dimethylamino)piperidin-1-yl)methyl)-5-(1H-indol-4-yl)-7-(morpholin-4-yl)pyrazolo[1,5-a]-pyrimidine]	–	–	> 1000	–	> 1000	> 1000	< 100
CC(C)(O)C1CCN(Cc2cc3nc(-c4c(F)ccc5[nH]ccc45)cc(N4CCOCC4)n3n2)CC1 [Example 7, 2-((4-(2-hydroxypropan-2-yl)-piperidin-1-yl)methyl)-5-(5-fluoro-1H-indol-4-yl)-7-(morpholin-4-yl)-pyrazolo[1,5-a]pyrimidine]	> 1000	> 1000	> 1000	< 100	–	–	–
CC(C)(C(N)=O)N1CCN(Cc2cc3nc(-c4cccc5[nH]ccc45)cc(N4CCOCC4)n3n2)CC1 [Example 9, 2-(4-((5-(1H-indol-4-yl)-7-(morpholin-4-yl)pyrazolo[1,5-a]-pyrimidin-2-yl)methyl)piperazin-1-yl)-2-methyl-propionamide]	–	–	> 1000	–	> 1000	> 1000	< 100
CC(C)(C(N)=O)N1CCN(Cc2cc3nc(-c4c(F)ccc5[nH]ccc45)cc(N4CCOCC4)n3n2)CC1 [Example 10, 2-(4-((5-(5-fluoro-1H-indol-4-yl)-7-(morpholin-4-yl)pyrazolo[1,5-a]-pyrimidin-2-yl)methyl)piperazin-1-yl)-2-methyl-propionamide]	> 1000	> 1000	> 1000	< 100	–	–	–
CN(C)C1CCN(Cc2cc3nc(-c4c(F)ccc5[nH]ccc45)cc(N4CCOCC4)n3n2)CC1 [Example 13, 2-((4-(dimethylamino)piperidin-1-yl)methyl)-5-(5-fluoro-1H-indol-4-yl)-7-(morpholin-4-yl)pyrazolo[1,5-a]pyrimidine]	> 1000	> 1000	> 1000	< 100	–	–	–
CC(C)(C)N1CCN(Cc2cc3nc(-c4ccc(N)nc4)cc(N4CCOCC4)n3n2)CC1 [Example 16, 5-(2-aminopyridin-5-yl)-2-((4-tert-butylpiperazin-1-yl)methyl)-7-(morpholin-4-yl)pyrazolo[1,5-a]-pyrimidine]	> 1000	> 1000	> 1000	< 100	–	–	–
CC(C)(C)N1CCN(Cc2cc3nc(-c4cnc(N)nc4)cc(N4CCOCC4)n3n2)CC1 [Example 17, 5-(2-aminopyrimidin-5-yl)-2-((4-tert-butylpiperazin-1-yl)methyl)-7-(morpholin-4-yl)pyrazolo[1,5-a]-pyrimidine]	> 1000	> 1000	> 1000	< 100	–	–	–
CC(C)(O)C1CCN(Cc2cc3nc(-c4ccc(N)nc4)cc(N4CCOCC4)n3n2)CC1 [Example 19, 5-(2-aminopyridin-5-yl)-2-((4-(2-hydroxypropan-2-yl)piperidin-1-yl)methyl)-7-(morpholin-4-yl)-pyrazolo[1,5-a]pyrimidine]	> 1000	> 1000	> 1000	< 100	–	–	–
c1cc(-c2cc(N3CCOCC3)n3nc(CN4CCN(C5CC5)CC4)cc3n2)c2cc[nH]c2c1 [Example 20, 2-((4-cyclopropyl-piperazin-1-yl)-methyl)-5-(1H-indol-4-yl)-7-(morpholin-4-yl)pyrazolo[1,5-a]-pyrimidine]	–	–	> 1000	–	–	> 1000	< 100
CCN1CCN(Cc2cc3nc(-c4cccc5[nH]ccc45)cc(N4CCOCC4)n3n2)CC1 [Example 22, 2-((4-ethylpiperazin-1-yl)methyl)-5-(1H-indol-4-yl)-7-(morpholin-4-yl)pyrazolo[1,5-a]pyrimidine]	–	–	> 1000	–	> 1000	> 1000	< 100
c1cc(-c2cc(N3CCOCC3)n3nc(CN4CC(N5CCOCC5)C4)cc3n2)c2cc[nH]c2c1 [Example 25, 5-(1H-indol-4-yl)-2-((3-(morpholin-4-yl)azetidin-1-yl)methyl)-7-(morpholin-4-yl)pyrazolo[1,5-a]-pyrimidine]	–	–	> 1000	–	> 1000	> 1000	< 100
CC(C)(C)C1CCN(Cc2cc3nc(-c4cccc5[nH]ccc45)cc(N4CCOCC4)n3n2)CC1 [Example 28, 2-((4-tert-butylpiperidin-1-yl)-methyl)-5-(1H-indol-4-yl)-7-(morpholin-4-yl)pyrazolo[1,5-a]-pyrimidine]	–	–	> 1000	–	> 1000	> 1000	< 100
CC(C)(O)C1CCN(Cc2cc3nc(-c4cncc5[nH]ccc45)cc(N4CCOCC4)n3n2)CC1 [Example 29, 5-(1H-6-azaindol-4-yl)-2-((4-(2-hydroxypropan-2-yl)piperidin-1-yl)methyl)-7-(morpholin-4-yl)-pyrazolo[1,5-a]pyrimidine]	–	> 1000	> 1000	< 100	–	–	–
CC(C)(C)N1CCN(Cc2cc3nc(-c4cncc5[nH]ccc45)cc(N4CCOCC4)n3n2)CC1 [Example 30, 5-(1H-6-azaindol-4-yl)-2-((4-tert-butylpiperazin-1-yl)methyl)-7-(morpholin-4-yl)pyrazolo[1,5-a]-pyrimidine]	–	–	> 1000	–	> 1000	> 1000	< 100
O=S1(=O)CCN(C2CN(Cc3cc4nc(-c5cccc6[nH]ccc56)cc(N5CCOCC5)n4n3)C2)CC1 [Example 31, 5-(1H-indol-4-yl)-2-((3-(1,1-dioxothiomorpholin-4-yl)azetidin-1-yl)methyl)-7-(morpholin-4-yl)-pyrazolo[1,5-a]pyrimidine]	–	–	> 1000	–	> 1000	> 1000	< 100
CC(C)(C)N1CCN(Cc2cc3nc(-c4ccnc5[nH]ccc45)cc(N4CCOCC4)n3n2)CC1 [Example 32, 5-(1H-7-azaindol-4-yl)-2-((4-tert-butylpiperazin-1-yl)methyl)-7-(morpholin-4-yl)pyrazolo[1,5-a]-pyrimidine]	–	> 1000	> 1000	< 100	–	–	–
CC(C)(O)C1CCN(Cc2cc3nc(-c4ccnc5[nH]ccc45)cc(N4CCOCC4)n3n2)CC1 [Example 33, 5-(1H-7-azaindol-4-yl)-2-((4-(2-hydroxypropan-2-yl)piperidin-1-yl)methyl)-7-(morpholin-4-yl)-pyrazolo[1,5-a]pyrimidine]	> 1000	> 1000	> 1000	< 100	–	–	–
Fc1ccc2[nH]ccc2c1-c1cc(N2CCOCC2)n2nc(CN3CCN(C4COC4)CC3)cc2n1 [Example 35]	> 1000	> 1000	> 1000	< 100	–	–	–
CC(C)(O)C1CCN(Cc2cc3nc(-n4c(C(F)F)nc5ccccc54)cc(N4CCOCC4)n3n2)CC1 [Example 51, 5-(2-(difluoromethyl)benzimidazol-1-yl)-2-((4-(2-hydroxypropan-2-yl)piperidin-1-yl)methyl)-7-(morpholin-4-yl)pyrazolo[1,5-a]-pyrimidine]	> 1000	> 1000	> 1000	< 100	–	–	–
CC(C)(C)N1CCN(Cc2cc3nc(-n4c(C(F)F)nc5cnccc54)cc(N4CCOCC4)n3n2)CC1 [Example 62, 5-(2-(difluoromethyl)imidazo[4,5-c]pyridin-1-yl)-2-((4-tert-butylpiperazin-1-yl)methyl)-7-(morpholin-4-yl)pyrazolo[1,5-a]-pyrimidine]	> 1000	> 1000	> 1000	100 to 1000	–	–	–
FC(F)c1nc2ccccc2n1-c1cc(N2CCOCC2)n2nc(CN3CC(N4CCOCC4)C3)cc2n1 [Example 64, 5-(2-(difluoromethyl)benzimidazol-1-yl)-2-((3-(morpholin-4-yl)-azetidin-1-yl)methyl)-7-(morpholin-4-yl)pyrazolo[1,5-a]pyrimidine]	> 1000	> 1000	100 to 1000	< 100	–	–	–
